Data as given in patent publication US10450301B2, “Apoptosis signal-regulating kinase 1 inhibitors and methods of use thereof” (ENANTA PHARMACEUTICALS, INC., priority 2017, dated 2019).
pIC50: −log10 of the molar value.

target: ASK1 (Homo sapiens (Human), UniProt Q99683); assay: HTRF KinEASE Assay (TR-FRET, STK3 peptide substrate), inhibition of ASK1; format: biochemical; settings: 5 nM ASK1 kinase, 1 μM STK3 peptide substrate, 100 μM ATP, 3 hours; compound 0 to 10 μM
Description: Assay HTRF® KinEASE™ Assay
ASK1 was purchased from Thermofisher (Catalogue # PV4011), ATP was purchased from Sigma (Catalogue # A7699), HI-TRF® KinEASE™ Assay System was obtained from Cisbio (Bedford, Mass.). […] HTRF® KinEASE™-STK is a generic method for measuring serine/threonine kinase activities using a time-resolved fluorescence resonance energy transfer (TR-FRET) immunoassay. […] 100 Um ATP is added to start kinase reaction and incubated for 3 hours. The STK3-antibody labeled with Eu^3+-Cryptate and 125 Nm streptavidin-XL665 are mixed in a single addition with stop reagents provided by the Cisbio kit used to stop the kinase reaction. […] The resulting TR-FRET is proportional to the phosphorylation level. Staurosporine was used as the positive control. IC50 was determined by Xlfit 5.3.
By using above method, the inhibition of ASK1 was evaluated for the compounds of Formula (I).

Sequence of ASK1 (Q99683 whole entry): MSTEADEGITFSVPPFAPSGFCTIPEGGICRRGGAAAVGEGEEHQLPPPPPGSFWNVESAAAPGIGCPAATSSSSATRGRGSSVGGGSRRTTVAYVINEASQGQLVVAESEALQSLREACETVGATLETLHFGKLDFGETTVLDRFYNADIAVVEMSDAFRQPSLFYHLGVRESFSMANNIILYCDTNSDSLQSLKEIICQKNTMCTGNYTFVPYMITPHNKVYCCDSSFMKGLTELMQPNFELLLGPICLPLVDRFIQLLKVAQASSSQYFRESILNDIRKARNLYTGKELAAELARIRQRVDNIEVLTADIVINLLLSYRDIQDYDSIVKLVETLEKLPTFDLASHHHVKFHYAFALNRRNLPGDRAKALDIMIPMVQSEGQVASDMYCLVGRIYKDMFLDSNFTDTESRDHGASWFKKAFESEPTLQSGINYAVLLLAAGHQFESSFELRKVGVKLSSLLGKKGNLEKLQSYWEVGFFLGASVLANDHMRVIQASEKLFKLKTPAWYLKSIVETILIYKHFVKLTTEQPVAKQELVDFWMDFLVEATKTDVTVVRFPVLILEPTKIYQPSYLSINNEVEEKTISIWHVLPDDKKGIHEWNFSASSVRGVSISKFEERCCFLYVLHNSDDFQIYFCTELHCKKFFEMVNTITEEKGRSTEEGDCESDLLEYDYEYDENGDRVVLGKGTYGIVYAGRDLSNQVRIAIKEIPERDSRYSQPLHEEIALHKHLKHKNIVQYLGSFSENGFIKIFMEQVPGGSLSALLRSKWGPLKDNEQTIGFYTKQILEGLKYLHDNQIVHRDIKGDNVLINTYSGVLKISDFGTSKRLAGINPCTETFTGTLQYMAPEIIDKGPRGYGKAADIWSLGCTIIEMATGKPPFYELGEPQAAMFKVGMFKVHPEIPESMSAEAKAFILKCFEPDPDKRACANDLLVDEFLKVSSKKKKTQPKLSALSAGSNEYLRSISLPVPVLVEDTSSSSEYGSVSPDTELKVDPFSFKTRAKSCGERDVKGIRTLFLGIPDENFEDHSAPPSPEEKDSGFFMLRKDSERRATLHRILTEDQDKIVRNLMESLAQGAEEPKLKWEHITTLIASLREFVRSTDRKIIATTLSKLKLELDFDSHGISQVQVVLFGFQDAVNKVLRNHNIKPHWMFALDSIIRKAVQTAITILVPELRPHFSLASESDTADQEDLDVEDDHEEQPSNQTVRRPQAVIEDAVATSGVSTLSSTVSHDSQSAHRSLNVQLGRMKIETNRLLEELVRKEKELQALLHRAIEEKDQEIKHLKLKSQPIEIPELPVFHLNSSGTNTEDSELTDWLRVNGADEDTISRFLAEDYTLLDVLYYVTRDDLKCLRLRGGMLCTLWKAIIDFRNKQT

Compound	pIC50
2-(N,N-dimethylsulfamoyl)-N-(6-(4-isopropyl-4H-1,2,4-triazol-3-yl)pyridin-2-yl)isoindoline-5-carboxamide [Example 10]	< 6.00
CC(C)N1Cc2ccc(C(=O)Nc3cccc(-c4nnnn4C(C)C)n3)cc2C1=O [Example 1, 2-isopropyl-N-(6-(1-isopropyl-1H-tetrazol-5-yl)pyridin-2-yl)-3-oxoisoindoline-5-carboxamide]	6.00 to 7.00
CC(C)n1nnnc1-c1cccc(NC(=O)c2ccc3c(c2)CN(C(=O)OCc2ccccc2)C3)n1 [Example 2]	< 6.00
CC(C)n1cnnc1-c1cccc(NC(=O)c2ccc3c(c2)CN(C(=O)OCc2ccccc2)C3)n1 [Example 3, benzyl 5-((6-(4-isopropyl-4H-1,2,4-triazol-3-yl)pyridin-2-yl)carbamoyl)isoindoline-2-carboxylate]	7.00 to 8.00
CC(C)n1cnnc1-c1cccc(NC(=O)c2ccc3c(c2)CN(S(=O)(=O)CCC(F)(F)F)C3)n1 [Example 4, N-(6-(4-isopropyl-4H-1,2,4-triazol-3-yl)pyridin-2-yl)-2-((3,3,3-trifluoropropyl)sulfonyl)isoindoline-5-carboxamide]	6.00 to 7.00
CCN(C)C(=O)N1Cc2ccc(C(=O)Nc3cccc(-c4nncn4C(C)C)n3)cc2C1 [Example 5, N2-ethyl-N5-(6-(4-isopropyl-4H-1,2,4-triazol-3-yl)pyridin-2-yl)-N2-methylisoindoline-2,5-dicarboxamide]	6.00 to 7.00
COCCS(=O)(=O)N1Cc2ccc(C(=O)Nc3cccc(-c4nncn4C(C)C)n3)cc2C1 [Example 6]	6.00 to 7.00
CCOC(=O)N1Cc2ccc(C(=O)Nc3cccc(-c4nncn4C(C)C)n3)cc2C1 [Example 7, ethyl 5-((6-(4-isopropyl-4H-1,2,4-triazol-3-yl)pyridin-2-yl)carbamoyl)isoindoline-2-carboxylate]	6.00 to 7.00
CC(C)n1nnnc1-c1cccc(NC(=O)c2ccc3c(c2)CNC3)n1 [Example 8]	< 6.00
CC(C)n1cnnc1-c1cccc(NC(=O)c2ccc3c(c2)CNC3)n1 [Example 9, N-(6-(4-isopropyl-4H-1,2,4-triazol-3-yl)pyridin-2-yl)isoindoline-5-carboxamide]	< 6.00
CC(C)n1nnnc1-c1cccc(NC(=O)c2ccc3c(c2)CN(C(=O)N2CCCC2)C3)n1 [Example 11]	6.00 to 7.00
CC(C)n1nnnc1-c1cccc(NC(=O)c2ccc3c(c2)CN(C(=O)N(C)C)C3)n1 [Example 12]	6.00 to 7.00
CCN(C)C(=O)N1Cc2ccc(C(=O)Nc3cccc(-c4nnnn4C(C)C)n3)cc2C1 [Example 13]	< 6.00
CC(C)n1nnnc1-c1cccc(NC(=O)c2ccc3c(c2)CN(S(=O)(=O)CCC(F)(F)F)C3)n1 [Example 14]	< 6.00
COCCS(=O)(=O)N1Cc2ccc(C(=O)Nc3cccc(-c4nnnn4C(C)C)n3)cc2C1 [Example 15]	< 6.00
CCOC(=O)N1Cc2ccc(C(=O)Nc3cccc(-c4nnnn4C(C)C)n3)cc2C1 [Example 16]	< 6.00
CC(C)n1cnnc1-c1cccc(NC(=O)c2ccc3c(c2)CN(C(=O)N2CCCC2)C3)n1 [Example 17]	7.00 to 8.00
CC(C)N1Cc2cnc(C(=O)Nc3cccc(-c4nnnn4[C@H](C)CO)n3)cc2C1=O [Example 18, (R)—N-(6-(1-(1-hydroxypropan-2-yl)-1H-tetrazol-5-yl)pyridin-2-yl)-2-isopropyl-1-oxo-2,3-dihydro-1H-pyrrolo[3,4-c]pyridine-6-carboxamide]	7.00 to 8.00
CC(C)N1Cc2cnc(C(=O)Nc3cccc(-c4nncn4C(C)C)n3)cc2C1=O [Example 19, 2-isopropyl-N-(6-(4-isopropyl-4H-1,2,4-triazol-3-yl)pyridin-2-yl)-1-oxo-2,3-dihydro-1H-pyrrolo[3,4-c]pyridine-6-carboxamide]	7.00 to 8.00
CC(C)n1cnnc1-c1cccc(NC(=O)c2cc3c(cc2F)CCN(S(=O)(=O)NC2CC2)C3)n1 [Example 20, 2-(N-cyclopropylsulfamoyl)-6-fluoro-N-(6-(4-isopropyl-4H-1,2,4-triazol-3-yl)pyridin-2-yl)-1,2,3,4-tetrahydroisoquinoline-7-carboxamide]	8.00 to 9.00
CC(C)n1cnnc1-c1cccc(NC(=O)c2cc3c(cc2F)CCN(S(=O)(=O)C2CCCC2)C3)n1 [Example 21]	8.00 to 9.00
CCNS(=O)(=O)N1CCc2cc(F)c(C(=O)Nc3cccc(-c4nncn4C(C)C)n3)cc2C1 [Example 22]	8.00 to 9.00
COCCS(=O)(=O)N1CCc2cc(F)c(C(=O)Nc3cccc(-c4nncn4C(C)C)n3)cc2C1 [Example 23]	8.00 to 9.00
COCCC(=O)N1CCc2cc(F)c(C(=O)Nc3cccc(-c4nncn4C(C)C)n3)cc2C1 [Example 24, 6-fluoro-N-(6-(4-isopropyl-4H-1,2,4-triazol-3-yl)pyridin-2-yl)-2-(3-methoxypropanoyl)-1,2,3,4-tetrahydroisoquinoline-7-carboxamide]	8.00 to 9.00
CC(C)n1cnnc1-c1cccc(NC(=O)c2cc3c(cc2F)CCN(C(=O)OC2CCCC2)C3)n1 [Example 25]	8.00 to 9.00
CCOC(=O)N1CCc2cc(F)c(C(=O)Nc3cccc(-c4nncn4C(C)C)n3)cc2C1 [Example 26]	8.00 to 9.00
CC(C)n1cnnc1-c1cccc(NC(=O)c2cc3c(cc2F)CCNC3)n1 [Example 27]	7.00 to 8.00

Compound	pIC50
COCCC(=O)N1CCc2cc(F)c(C(=O)Nc3cccc(-c4nnnn4C(C)C)n3)cc2C1 [Example 28]	7.00 to 8.00
CCNC(=O)N1CCc2cc(F)c(C(=O)Nc3cccc(-c4nnnn4C(C)C)n3)cc2C1 [Example 29, N2-ethyl-6-fluoro-N7-(6-(1-isopropyl-1H-tetrazol-5-yl)pyridin-2-yl)-3,4-dihydroisoquinoline-2,7(1H)-dicarboxamide]	8.00 to 9.00
CCOC(=O)N1CCc2cc(F)c(C(=O)Nc3cccc(-c4nnnn4C(C)C)n3)cc2C1 [Example 30]	7.00 to 8.00
CC(C)n1nnnc1-c1cccc(NC(=O)c2cc3c(cc2F)CCN(C(=O)OCc2ccccc2)C3)n1 [Example 31]	7.00 to 8.00
CC(C)n1cnnc1-c1cccc(NC(=O)c2ccc3c(c2)CN(C(=O)c2nccs2)CC3)n1 [Example 32]	7.00 to 8.00
C=CCNC(=O)N1CCc2ccc(C(=O)Nc3cccc(-c4nncn4C(C)C)n3)cc2C1 [Example 33]	7.00 to 8.00
CC(C)n1cnnc1-c1cccc(NC(=O)c2ccc3c(c2)CN(C(=O)OC2CCCC2)CC3)n1 [Example 34]	7.00 to 8.00
CCCOC(=O)N1CCc2ccc(C(=O)Nc3cccc(-c4nncn4C(C)C)n3)cc2C1 [Example 35]	7.00 to 8.00
CCOC(=O)N1CCc2ccc(C(=O)Nc3cccc(-c4nncn4C(C)C)n3)cc2C1 [Example 36]	7.00 to 8.00
CC(C)n1cnnc1-c1cccc(NC(=O)c2ccc3c(c2)CNCC3)n1 [Example 37, N-(6-(4-isopropyl-4H-1,2,4-triazol-3-yl)pyridin-2-yl)-1,2,3,4-tetrahydroisoquinoline-7-carboxamide]	6.00 to 7.00
COCCCN1CCc2ccc(C(=O)Nc3cccc(-c4nncn4C(C)C)n3)cc2C1 [Example 38, N-(6-(4-isopropyl-4H-1,2,4-triazol-3-yl)pyridin-2-yl)-2-(3-methoxypropyl)-1,2,3,4-tetrahydroisoquinoline-7-carboxamide]	6.00 to 7.00
C=CCN1CCc2ccc(C(=O)Nc3cccc(-c4nncn4C(C)C)n3)cc2C1 [Example 39, 2-allyl-N-(6-(4-isopropyl-4H-1,2,4-triazol-3-yl)pyridin-2-yl)-1,2,3,4-tetrahydroisoquinoline-7-carboxamide]	6.00 to 7.00
CC(C)n1nnnc1-c1cccc(NC(=O)c2cc3c(cc2F)CCN(S(=O)(=O)CCC(F)(F)F)C3)n1 [Example 40]	7.00 to 8.00
CCN(CC)C(=O)N1CCc2cc(F)c(C(=O)Nc3cccc(-c4nncn4C(C)C)n3)cc2C1 [Example 41]	8.00 to 9.00
CC(C)CS(=O)(=O)N1CCc2cc(F)c(C(=O)Nc3cccc(-c4nncn4C(C)C)n3)cc2C1 [Example 42]	8.00 to 9.00
CC(C)n1cnnc1-c1cccc(NC(=O)c2cc3c(cc2F)CCN(S(=O)(=O)CC2CC2)C3)n1 [Example 43]	7.00 to 8.00
CC(C)n1cnnc1-c1cccc(NC(=O)c2cc3c(cc2F)CCN(C(=O)N2CCCC2)C3)n1 [Example 44]	8.00 to 9.00
CCN(C)C(=O)N1CCc2cc(F)c(C(=O)Nc3cccc(-c4nncn4C(C)C)n3)cc2C1 [Example 45]	8.00 to 9.00
CC(C)n1cnnc1-c1cccc(NC(=O)c2cc3c(cc2F)CCN(S(=O)(=O)CCC(F)(F)F)C3)n1 [Example 46]	8.00 to 9.00
CC(C)n1cnnc1-c1cccc(NC(=O)c2cc3c(cc2F)CCN(S(=O)(=O)C2CC2)C3)n1 [Example 47]	8.00 to 9.00
CC(C)n1cnnc1-c1cccc(NC(=O)c2cc3c(cc2F)CCN(C(=O)N(C)C)C3)n1 [Example 48]	8.00 to 9.00
CC(C)n1cnnc1-c1cccc(NC(=O)c2cc3c(cc2F)CCN(S(=O)(=O)N(C)C)C3)n1 [Example 49]	8.00 to 9.00
CC(C)n1cnnc1-c1cccc(NC(=O)c2cc3c(cc2F)CCN(C(=O)N2CCOCC2)C3)n1 [Example 50]	7.00 to 8.00
CC(C)n1cnnc1-c1cccc(NC(=O)c2cc3c(cc2F)CCN(C(=O)NC2CCCC2)C3)n1 [Example 51]	8.00 to 9.00
CCNC(=O)N1CCc2cc(F)c(C(=O)Nc3cccc(-c4nncn4C(C)C)n3)cc2C1 [Example 52]	8.00 to 9.00
CC(C)n1cnnc1-c1cccc(NC(=O)c2cc3c(cc2F)CCN(C(=O)OCc2ccccc2)C3)n1 [Example 53, benzyl 6-fluoro-7-((6-(4-isopropyl-4H-1,2,4-triazol-3-yl)pyridin-2-yl)carbamoyl)-3,4-dihydroisoquinoline-2(1H)-carboxylate]	7.00 to 8.00
